For this experiment, the system named is up-regulation of ICAM-1 (CD54) by IFNγ in A549 lung epithelial cells. Put plainly: A549 Epithelial Line Stimulated with IFNγ (ICAM-1 surface expression, FACS). The experiment is classed as cell-based, human. The note with it: Homo sapiens, A549, A549 cells stimulated with IFNγ, ICAM-1 expression by FACS; read-out: IC50, Example 43. The source says:
The activity of the compounds of the invention may additionally be characterized by assaying the effect of the 2,4-substituted pyrimidinediamine compounds described herein on A549 lung epithelial cells and U937 cells. A549 lung epithelial cells and U937 cells up-regulate ICAM-1 (CD54) surface expression in response to a variety of different stimuli. Therefore, using ICAM-1 expression as readout, test compound effects on different signaling pathways can be assessed in the same cell type. Stimulation with IL-1β through the IL-1β receptor activates the TRAF6/NFκB pathway resulting in up-regulation of ICAM-1. IFNγ induces ICAM-1 up-regulation through activation of the JAK1/JAK2 pathway. The up-regulation of ICAM-1 can be quantified by flow cytometry across a compound dose curve and EC50, values are calculated. An exemplary assays of this type are described in greater detail in Examples 43 and 44
A549 lung epithelial cells up-regulate ICAM-1 (CD54) surface expression in response to a variety of different stimuli. Therefore, using ICAM-1 expression as readout, compound effects on different signaling pathways can be assessed in the same cell type. IFNγ up-regulates ICAM-1 through activation of the JAK/Stat pathway. In this example, the up-regulation of ICAM-1 by IFNγ was assessed.
The A549 lung epithelial carcinoma cell line originated from the American Type Culture Collection. Routine culturing was with F12K media (Mediatech Inc., Lenexa, KS, Cat. No. 10-025-CV) with 10% fetal bovine serum, 100 I.U. penicillin and […] streptomycin (complete F12k media). Cells were incubated in a humidified atmosphere of 5% CO2 at 37° C. Prior to use in the assay, A549 cells were washed with PBS and trypsinized (Mediatech Inc., Cat. No. 25-052-CI) to lift the cells. The trypsin cell suspension was neutralized with complete F12K media and centrifuged to pellet the cells. The cell pellet was resuspended in complete F12K media at a concentration of 2.0×10^5/mL. Cells were seeded at 20,000 per well, 100 μL total volume, in a flat bottom tissue culture plate and allowed to adhere overnight.
On day two, A549 cells were pre-incubated with a 2,4-substituted pyrimidinediamine test compound or DMSO (control) (Sigma-Aldrich, St. Louis, MO, Catalog No. D2650) for 1 hour. The cells were then stimulated with IFNγ (75 ng/mL) (Peprotech Inc., Rocky Hill, NJ, Cat. No. 300-02) and allowed to incubate for 24 hours. The final test compound dose range was 30 μM to 14 nM in 200 μL F12K media containing 5% FBS, 0.3% DMSO.
On day three, the cell media was removed and the cells were washed with 200 μL PBS (phosphate buffered saline). Each well was trypsinized to dissociate the cells, then neutralized by addition of 200 μL complete F12K media. Cells were pelleted and stained with an APC conjugated mouse anti-human ICAM-1 (CD54) (BD Pharmingen, San Diego, CA, Catalog #559771) antibody for 20 minutes at 4° C. Cells were washed with ice cold FACS buffer (PBS+2% FBS) and surface ICAM-1 expression was analyzed by flow cytometry. Detection was performed using a BD LSR I System Flow Cytometer, purchased from BD Biosciences of San Jose, California Events were gated for live scatter and the geometric mean was calculated (Becton-Dickinson CellQuest software version 3.3, Franklin Lakes, NJ). Geometric means were plotted against the compound concentration to generate a dose response curve.
Background: In flow cytometry, cells or beads pass a laser one at a time.

A word on the IC50: it is the midpoint of a concentration-inhibition curve.

For the molecule `NS(=O)(=O)c1cccc(Nc2ncc(F)c(Nc3ccc(CCCO)cc3)n2)c1` [VI-86, N2-(3-Aminosulfonylphenyl)-5-fluoro-N4-[4-(3-hydroxypropyl)phenyl]-2,4-pyrimidinediamine], the 50% inhibitory concentration (IC50) is 4.44 µM.
Consider `NS(=O)(=O)c1ccc(Nc2ncc(F)c(Nc3ccc(CCCCO)cc3)n2)cc1` [VI-88, N2-(4-Aminosulfonylphenyl)-5-fluoro-N4-[4-(4-hydroxybutyl)phenyl]-2,4-pyrimidinediamine], for which the IC50 stood at 24.7 µM.
For `NS(=O)(=O)c1cccc(Nc2ncc(F)c(Nc3ccc(CCCCO)cc3)n2)c1` [VI-89, N2-(3-Aminosulfonylphenyl)-5-fluoro-N4-[4-(4-hydroxybutyl)phenyl]-2,4-pyrimidinediamine] the value was 5.76 µM; for `NS(=O)(=O)c1cccc(Nc2ncc(F)c(Nc3ccc(CCCCF)cc3)n2)c1` [VI-92, N2-(3-Aminosulfonylphenyl)-5-fluoro-N4-[4-(4-fluorobutyl)phenyl]-2,4-pyrimidinediamine], 13 µM.
For `NS(=O)(=O)c1cc(Nc2ncc(F)c(Nc3ccc(O)cc3)n2)ccc1F` [VI-100, N2-(3-Aminosulfonyl-4-fluorophenyl)-5-fluoro-N4-(4-hydroxyphenyl)-2,4-pyrimidinediamine] the value was 9.18 µM.
For `Cc1ccc(Nc2ncc(F)c(Nc3ccc(O)cc3)n2)cc1S(N)(=O)=O` [VI-102, N2-(3-Aminosulfonyl-4-methylphenyl)-5-fluoro-N4-[4-hydroxyphenyl]-2,4-pyrimidinediamine] the value was 14.7 µM; for `COc1ccc(Nc2nc(Nc3ccc(N4CCN(C)CC4)c(S(N)(=O)=O)c3)ncc2F)cc1Cl` [VI-116, N2-[3-Aminosulfonyl-4-(4-methylpiperazine-1-yl)phenyl]-N4-(3-chloro-4-methoxyphenyl)-5-fluoro-2,4-pyrimidinediamine], 8.1 µM; for `COc1ccc(Nc2nc(Nc3cccc(S(N)(=O)=O)c3)ncc2F)cn1` [VII-6, N2-(3-Aminosulfonylphenyl)-5-fluoro-N4-(2-methoxypyrid-5-yl)-2,4-pyrimidinediamine], 23.4 µM.
Regarding `COc1ccc(Nc2nc(Nc3ccc(C)c(S(N)(=O)=O)c3)ncc2F)nc1N` [VII-9, N2-(3-Aminosulfonyl-4-methylphenyl)-N4-[2-amino-3-methoxypyrid-6-yl]-5-fluoro-2,4-pyrimidinediamine], the IC50 came to 17.1 µM.
For `Cc1ccc(Nc2ncc(C)c(Nc3ccc4c(c3)NC(=O)CO4)n2)cc1S(N)(=O)=O` [VII-30, N2-(3-Aminosulphonyl-4-methylphenyl)-5-methyl-N4-(3-oxo-benz[1,4]oxazin-6-yl)-2,4-pyrimidinediamine] the value was 8.92 µM; for `Cc1ccc(Nc2ncc(F)c(Nc3ccc4c(c3)NC(=O)CS4)n2)cc1S(N)(=O)=O` [VII-44, N2-(3-Aminosulphonyl-4-methyl-phenyl)-5-fluoro-N4-(3-oxo-4H-benzo[1,4]thiazin-6-yl)-2,4-pyrimidinediamine], 9.12 µM.
For `CN1C(=O)CSc2ccc(Nc3nc(Nc4cccc(S(N)(=O)=O)c4)ncc3F)cc21` [VII-49, N2-(3-Aminosulfonylphenyl)-5-fluoro-N4-(4-methyl-3-oxo-benz[1,4]thiazin-6-yl)-2,4-pyrimidinediamine] the value was 3.06 µM; for `Cc1ccc(Nc2ncc(F)c(Nc3ccc4oc(C#N)cc4c3)n2)cc1S(N)(=O)=O` [VII-53, N2-(3-Aminosulfonyl-4-methylphenyl)-N4-(2-cyanobenzofuran-5-yl)-5-fluoro-2,4-pyrimidinediamine], 5.46 µM.
As for `Cc1ccc(Nc2ncc(F)c(Nc3ccc4sccc4c3)n2)cc1S(N)(=O)=O` [VII-57, N2-(3-Aminosulfonyl-4-methylphenyl)-N4-(benzothiophen-5-yl)-5-fluoro-2,4-pyrimidinediamine], the figure is 10.7 µM.
Regarding `Cc1ccc(Nc2ncc(F)c(Nc3ccc4ncccc4c3)n2)cc1S(N)(=O)=O` [VII-69, N2-(3-Aminosulfonyl-4-methylphenyl)-5-fluoro-N4-(quinolin-6-yl)-2,4-pyrimidinediamine], the IC50 was found to be 7.5 µM.
As for `NS(=O)(=O)c1cccc(Nc2ncc(F)c(Nc3ccc4ncccc4c3)n2)c1` [VII-70, N2-(3-Aminosulfonylphenyl)-5-fluoro-N4-(quinolin-6-yl)-2,4-pyrimidinediamine], the IC50 amounted to 6.48 µM.
As for `Cc1ccc2cc(Nc3nc(Nc4ccc(C)c(S(N)(=O)=O)c4)ncc3F)ccc2n1` [VII-71, N2-(3-Aminosulfonyl-4-methylphenyl)-5-fluoro-N4-(2-methylquinolin-6-yl)-2,4-pyrimidinediamine], the figure is 5.47 µM; as for `Cc1ccc2cc(Nc3nc(Nc4cccc(S(N)(=O)=O)c4)ncc3F)ccc2n1` [VII-72, N2-(3-Aminosulfonylphenyl)-5-fluoro-N4-(2-methylquinolin-6-yl)-2,4-pyrimidinediamine], 9.93 µM.
